Source: patent US20220227776A1, “PRODRUGS OF 1'-S[…]-NUCLEOSIDE ANALOGUES FOR ANTIVIRAL TREATMENT” (Copycat Sciences Inc., priority 2020, published 2022)

Experiments:
[1] = Phosphate buffer stability at 25° C.; assay type: physicochemical
Excerpt: (§1) As summarized in Table 8, these studies indicate that CAT002 is an efficient prodrug of GS-441524 that is well-suited for clinical development as an oral agent.

[2] = Thermodynamic solubility at pH 7.4; assay type: physicochemical
Excerpt: as §1

Caco-2 = Caco-2 permeability AB/BA; assay type: in vitro ADME; details: for Caco-2 permeability AB: AB direction; for Caco-2 permeability BA: BA direction; for Caco-2 Efflux: BA/AB
[3] = Human plasma stability at 37° C.
[4] = Human intestinal S9 stability at 37° C.; assay type: in vitro ADME
Excerpt: Across all species tested, CAT002 was efficiently metabolized to the core nucleoside GS-441524 when administered orally, indicating efficient first-pass intestinal or hepatic metabolism. Rapid hydrolysis of CAT002 in human intestinal homogenates indicated intestinal metabolism as the primary mechanism of CAT002 hydrolysis.

[5] = Plasma pharmacokinetics of GS-441524 following oral administration of CAT002 in cynomolgus macaques; assay type: in vivo
Description: CAT002 (7.8 mg/kg; 4.9 mg/kg-equivalent of the parent nucleoside, GS-441524) was formulated in saline (1.60 mg/mL) and orally administered to fasted male cynomolgus macaques (N=2). GS-441524 is in turn intracellularly converted to the bioactive ATP analogue, GS-443902. GS-443902 is known to have an antiviral activity and affinity for viral polymerase. See Gordon et al. JBC 2020; 295(20): 6785-6797; Tchesnokov et al. JBC 2020: 295(47):16156-16165; Yin et al. Science 2020: 368(6498): 1499-1504. Whole blood samples were collected at the following timepoints (hours) in K2EDTA collection tubes: 0.25, 0.50, 1.00, 2.00, 4.00, 8.00, 24.0, 48.0.
(§2) Sample preparation. Plasma was isolated by protein precipitation in a 96-well plate at 0° C. An aliquot of 20 μL unknown sample, calibration standard, quality control and dilution quality control (if have), single blank, and double blank sample was added to the 96-well plate respectively. Each sample (except the double blank) was quenched with 100 μL of IS1 respectively (double blank sample was quenched with 100 μL of MeOH), and then the mixture was vortex-mixed for 10 min at 800 rpm and centrifuged for 15 min at 3220×g, 4° C. An aliquot of 60 μL supernatant was transferred to another clean 96-well plate and centrifuged for 5 min at 3220×g, 4° C., then the supernatant was directly injected for LC-MS/MS analysis.
LC-MS/MS analysis. Metabolites of interest (CAT002, GS-441524) were then quantified by LC-MS/MS (SCIEX LC-MS/MS-BZ Triple Quad 6500+, ACQUITY UPLC HSS T3 1.8 μm 2.1×50 mm Column; mobile phase A: 0.1% formic acid in water, mobile phase B: 0.1% formic acid in acetonitrile; flow rate: 0.65 mL/min.). Gradient conditions were as follows: 2% B over 0.2 minutes, 2-25% B from 0.2-1.2 minutes, 25-95% from 1.2-1.4 minutes, 95% from 1.4-2.1 minutes, 95-2% from 2.1-2.11 minutes, 2% from 2.11-2.2 minutes). The lower limit of quantification for 1.00 ng/mL for CAT002 and 2.00 ng/mL for GS-441524. Data for both CAT002 and GS-441524 were fitted and analyzed by Phoenix NonWinLin 6.3 using noncompartmental model 200 (extravascular output). […]

[6] = Plasma pharmacokinetics of GS-441524 following oral administration of CAT002 in Sprague-Dawley rats; assay type: in vivo
Description: CAT002 (16 mg/kg; 10.8 mg/kg-equivalent of the parent nucleoside, GS-441524) was formulated in saline (1.60 mg/mL) and orally administered to fasted male rats (N=2). Whole blood samples were collected at the following timepoints (hours) in K2EDTA collection tubes: 0.25, 0.50, 1.00, 2.00, 4.00, 8.00, 24.0, 48.0.
as §2
LC-MS/MS analysis. Metabolites of interest (CAT002, GS-441524) were then quantified by LC-MS/MS (SCIEX LC-MS/MS-BZ Triple Quad 6500+, ACQUITY UPLC HSS T3 1.8 μm 2.1×50 mm Column; mobile phase A: 0.1% formic acid in water, mobile phase B: 0.1% formic acid in acetonitrile; flow rate: 0.65 mL/min.). Gradient conditions were as follows: 2% B over 0.2 minutes, 2-25% B from 0.2-1.2 minutes, 25-95% from 1.2-1.4 minutes, 95% from 1.4-2.1 minutes, 95-2% from 2.1-2.11 minutes, 2% from 2.11-2.2 minutes). The lower limit of quantification for both CAT002 and GS-441524 was 2.00 ng/mL. Data for both CAT002 and GS-441524 were fitted and analyzed by Phoenix NonWinLin 6.3 using noncompartmental model 200 (extravascular output). Data on directly administered oral GS-441524 were obtained from the NCATS OpenData Portal and are plotted alongside data generated from CAT002 for comparison (FIG. 1).

[7] = Human hepatic microsomal stability (+/- mixed cofactors); assay type: in vitro ADME
[8] = Plasma pharmacokinetics of GS-441524 following oral administration of CAT002 in humans; assay type: in vivo
Description: CAT002 (HCl salt) was administered as excipient-less gelatin capsules to healthy participants (N=2) in the fasted state. Participant 1 (Subject 1) is a healthy person and Participant 2 (Subject 2) is a healthy person. Both Participants 1 and 2 were administered 5.4 mg/kg CAT002 (3 mg/kg-equivalent GS-441524). Whole blood samples were collected at the following timepoints (hours) in K2EDTA collection tubes: 0.5, 1, 3.6, 8, 24, 43. Plasma was isolated by centrifugation and samples were stored at −78° C. before analysis.
In-life PK of orally administered GS-441524. GS-441524 was administered as an excipient-less gelatin capsule (200 mg) to Participant 1 in the fasted state. Whole blood samples were collected at the following timepoints (hours) in K2EDTA collection tubes: 0.5, 1, 3.6, 8, 24, 43. Plasma was isolated by centrifugation and samples were stored at −78° C. before analysis. Sample preparation. An aliquot of 20 μL unknown sample, calibration standard, quality control and dilution quality control (if have), single blank, and double blank sample was added to the 96-well plate respectively. Each sample (except the double blank) was quenched with 100 μL of IS1 respectively (double blank sample was quenched with 100 μL of MeOH), and then the mixture was vortex-mixed for 10 min at 800 rpm and centrifuged for 15 min at 3220×g, 4° C. An aliquot of 60 μL supernatant was transferred to another clean 96-well plate and centrifuged for 5 min at 3220×g, 4° C., then the supernatant was directly injected for LC-MS/MS analysis.
LC-MS/MS analysis. Metabolites of interest (GS-441524) were then quantified by LC-MS/MS (SCIEX LC-MS/MS-BZ Triple Quad 6500+, ACQUITY UPLC HSS T3 1.8 μm 2.1×50 mm Column; mobile phase A: 0.1% formic acid in water, mobile phase B: 0.1% formic acid in acetonitrile; flow rate: 0.65 mL/min.). […] The lower limit of quantification was 1.00 ng/mL. Data for both CAT002 and GS-441524 were fitted and analyzed by Phoenix NonWinLin 6.3 using noncompartmental model 200 (extravascular output) (FIG. 3).

[9] = oral CAT002, analyte GS-441524 in plasma
[10] = oral CAT002 in aqueous solution

With `N#C[C@@]1(c2ccc3c(N)ncnn23)O[C@H](CO)[C@@H](O)[C@H]1O` [GS-441524, reference compound] the “Phosphate buffer stability at 25° C., T1/2” value (shortened to “Phosphate buffer stability”) ([1]; pH not specified) was “Stable”, the “Thermodynamic solubility at pH 7.4” value [2] was 0.04 mg/mL and the “Caco-2 permeability AB” value (Caco-2) was 0.17 cm/sec•10^6. For the same molecule, the “Caco-2 permeability BA” value (Caco-2) was 2.1 cm/sec•10^6, the “Caco-2 Efflux” value (Caco-2) was 12.4 and the “Human plasma stability at 37° C.” value ([3]; plasma type not specified) was “Stable”. For the same molecule, the “Human intestinal S9 stability at 37° C.” value [4] was “Stable”.

In the case of “((2R,3S,4R,5R)-5-(4-aminopyrrolo[2,1-f][1,2,4]triazin-7-yl)-5-cyano-3,4-dihydroxytetrahydrofuran-2-yl)methyl D-valinate [CAT002]”, the “plasma levels of CAT002 (for determining its half-life)” value (“plasma levels of CAT002” below) ([5]; oral CAT002, analyte CAT002) was “either too low or below the limit of quantification”, the “half-life of GS-441524 derived from CAT002” value (shortened to “half-life … from CAT002”) [5, 9] was 8 h and the “plasma exposure to GS-441524 with respect to Cmax, fold higher than previously reported for equivalent doses of oral GS-441524 in organic solution” value [5, 10] was “approximately 6 fold”. The “Phosphate buffer stability” value ([1]; pH 3.0) was “pH 3.0: Stable”, the “Phosphate buffer stability” value ([1]; pH 7.4) was “pH 7.4: 30 hours” and the “plasma levels of CAT002” value ([6]; oral CAT002, analyte CAT002) was “either too low or below the limit of quantification”. The “half-life … from CAT002” value [6, 9] was 3 h, the “plasma exposure to GS-441524 with respect to Cmax, fold higher than previously reported for equivalent doses of oral GS-441524 in organic solution” value [6, 10] was “approximately 6 fold” and the “aqueous solubility at neutral pH, fold greater than GS-441524” value ([2]; neutral pH, relative to GS-441524) was 87 fold. The “Thermodynamic solubility at pH 7.4” value [2] was 3.4 mg/mL, the “Caco-2 permeability AB” value (Caco-2) was 0.55 cm/sec•10^6 and the “Caco-2 permeability BA” value (Caco-2) was 0.45 cm/sec•10^6. The “Caco-2 Efflux” value (Caco-2) was 0.8, the “Human plasma stability at 37° C.” value ([3]; EDTA plasma) was “EDTA plasma: 195 minutes” and the “Human plasma stability at 37° C.” value ([3]; Heparin plasma) was “Heparin plasma: >289.1 minutes”. The “Human hepatic microsomal stability, T1/2” value [7] was 67 minutes (− cofactors), the “Human intestinal S9 stability at 37° C.” value [4] was 19.5 min and the “plasma levels of CAT002” value ([8]; oral CAT002, analyte CAT002) was “either too low or below the limit of quantification”. The “half-life … from CAT002” value [8, 9] was 7.3 h and the “plasma exposure of the core nucleoside with respect to Cmax, fold higher than oral solution of GS-441524 at an equivalent per-molar dose” value ([8]; oral CAT002 powder-in-capsule formulation) was “approximately 4 fold”.
